Laboratory results from patent US5095037A, “Combined anti-inflammatory agent” (Nissho Corporation, priority 1989, dated 1992).

What was measured:
[1] = tested on: carrageenan-induced edema; assay: Test Example 6: prolonged inhibitory effect on carrageenan-induced edema, agent 16 h before carrageenan (Table 7); type: in vivo, Wister male rats
Experimental: (§1) The measurement of the volume was carried out according to the method of Fujimura et al. (see Iyakuhin Kaihatsu Kisokoza, Vol. 6, "Yakubutsu no Hyoka (1)" editted by Tsuda and Nogami, p 239-282, Kabushiki Kaisha Chizin-sha, 1971).
(§2) The rate of inhibition (%) of the edema of the foot pad of each rat was calculated according to the following formula (III). [formula] MCEV: Average swollen rate of the foot pad 4 hours after the administration of carrageenan in the control group
(§3) MTEV: Average swollen rate of the foot pad 4 hours after the administration of carrageenan in the drug-given group [formula] CEV: Volume of foot pad of each rat before the administration of carrageenan
(§4) TEV: Volume of foot pad of each rat 4 hours after the administration of carrageenan
(§5) With respect to each agent, the evaluation of the inhibitory effect on edema was carried out according to the following criteria: Synergistic effect was observed:
(§6) Very great HA % + DG % ≤ ED %
(§7) Great TD % ≤ ED % < HA % + DG %
(§8) Small MD % < ED % < TD %
(§9) No synergistic effect was observed:
(§10) HA % : Inhibitory rate by the administration of sodium hyaluronate alone
(§11) DG % : Inhibitory rate by the administration of the anti-inflammatory agent alone
(§12) ED % : Inhibitory rate by the administration of the combined agent
(§13) MD % : {The greater one between HA % and DG %} × 1.2
(§14) TD % : HA % + DG % (1--HA %/100)
(§15) Wister male rats weighing 240 to 260 g (6 weeks old) were preliminarily bred for not less than 1 week. Eight rats were used in one group. A 1% solution of each test agent shown in Table 7 was administered subcutaneously into the right foot pad of each rat. Sixteen hours after the administration, a 1% solution of carrageenan was administered subcutaneously as an irritating agent into the right foot pad of each rat in a dose of 0.1 ml/animal. The volume of the right foot pad was measured before and 4 hours after the administration of carrageenen. Then, the inhibitory effect on edema was evaluated in the same way as in Test Example 1.

[2] = tested on: movable range of joint (right knee); assay: Test Example 7: inhibition of the damage to the movable range of joint, fixed right knee (Table 8); type: in vivo, Rabbits (New Zealand White); conditions: articular cavity; for curative effect (in words): Table 8; for Inhibitory rate (damage to the movable range of joint): dose 3.0 mg/kg, once per three days, one month, single agent
Experimental: Rabbits (New Zealand White) weighing about 2 kg were preliminarily bred for not less than one week and healthy ones were selected (3 rabbits per group). The joint of right knee of each rabbit was fixed by applying a splint thereto and further completely fixed not so as to move by putting it in plaster. Then the rabbits were bred normally for one month.
During the normal breading, a 1% solution of each test agent shown in Table 8 was administered using an injection needle of gauge No. 27 into the articular cavity of each rabbit except those of the control group in a dose of 0.3 ml/kg body weight once per three days.
One day after the last administration, the splint and the plaster were removed and the movable range of the joint was measured with a protractor under anesthesia with Nembutal (trademark). The rate of inhibition of the damage to the movable range of joint with respect to each test agent was calculated from the obtained measurements and the curative effect was evaluated.
The rate of inhibition of the damage to the movable range of joint was calculated according to the following formula (IV), and the evaluation of synergistic effect was conducted under the same condition as in Test Example 1. [formula] MCJV: Average movable range of joint with respect to the rabbits of the […] group
MTJV: Average movable range of joint with respect to the rabbits of the […] group

[3] = tested on: carrageenan-induced edema; assay: Test Example 1: inhibitory effect on carrageenan-induced edema, foot pad, agent 6 h before carrageenan (Table 2); type: in vivo, Wister male rats
Experimental: The inhibitory effect on carrageenan-induced edema was investigated as to combined agents of sodium hyaluronate (molecular weight: 8 ×10^5) and various anti-inflammatory agents.
Wister male rats weighing 240 to 260 g (6 weeks old) were preliminarily bred for not less than 1 week. Eight rats were used in one group. Each test agent shown in Table 2 was dissolved or suspended in an isotonic phosphate buffer solution (pH 7.0) to give a 1% solution or suspension (hereinafter referred to as "1% solution"). The solution was administered subcutaneously into the right foot pad of each rat. Six hours after the administration, a 1% solution of carrageenan was administered subcutaneously as an irritating agent into the right foot pad of the rat in a dose of 0.1 ml/animal. The volume of the right foot pad was measured before and 4 hours after the administration of carrageenan. The rate of edema inhibition (hereinafter referred to as "inhibitory rate") by each test agent was calculated from the obtained measurements and thus the inhibitory effect on edema was evaluated.
as §2, §3, §4, §5, §6, §7, §8, §9, §10, §11, §12, §13, §14

[4] = tested on: carrageenan-induced edema; assay: Test Example 4: inhibitory effect on carrageenan-induced edema, various acid anti-inflammatory agents (Table 5); type: in vivo, Wister male rats; conditions: dose 4 mg/kg, single agent
Experimental: as §1, §2, §3, §4, §5, §6, §7, §8, §9, §10, §11, §12, §13, §14
The inhibitory effect on carrageenan-induced edema was investigated with respect to combined agents of sodium hyaluronate (molecular weight: 8 × 10^5) and various acid anti-inflammatory agents.
as §15, with “255” for “260 g”, “5” for “7”, “Six” for “Sixteen”, “carrageenen” for “carrageenan”

[5] = tested on: ICR mice; assay: Test Example 5: toxicity, number of dead mice 72 hours after subcutaneous administration (Table 6); type: in vivo; conditions: dose 40 mg/kg s.c., 5 mice per group
Experimental: After preliminary breeding of mail ICR mice 5 weeks old weighing 23 to 28 g (5 mice per one group) for one week, a 1% solution of each test agent shown in Table 6 wa subcutaneously administered to the mice. The number of dead mice was counted 72 hours after the administration.
The doses of the test agent used in this test were about ten times those used in Test Example 1.
The molecular weight of sodium hyaluronate is 8 × 10^5. The
doses in Table 6 mean the amounts (mg) administered per kg body weight.
The dose values, to which the mark "+" is attached, as to the combined
agents means the amounts of antiinflammatory agent added to 40 mg/kg of
sodium hyaluronate (HA).

[6] = tested on: carrageenan-induced edema; assay: Test Example 2: inhibitory effect on carrageenan-induced edema, sodium hyaluronates of different molecular weights (Table 3); type: in vivo, Wister male rats; conditions: dose 4.0 mg/kg
Experimental: as §1, §2, §3, §4
The inhibitory effect on carrageenan-induced edema was investigated as to combined agents of various grades of sodium hyaluronates having different molecular weights with diclofenac sodium.
Wister male rats weighing 230 to 265 g (6 weeks old) were preliminarily bred for not less than 1 week. Eight rats were used in one group. A 1% solution of each test agent shown in Table 3 was administered subcutaneously into the right foot pad of each rat. Six hours after the administration, a 1% solution of carrageenan was administered subcutaneously as an irritating agent into the right foot pad of the rat in a dose of 0.1 ml/animal. The volume of the right foot pad was measured before and 4 hours after the administration of carrageenan. Then the inhibitory effect on edema was evaluated in the same way as in Test Example 1.

[7] = tested on: carrageenan-induced edema; assay: Test Example 3: inhibitory effect on carrageenan-induced edema, varied ratio of diclofenac sodium to sodium hyaluronate (Table 4); type: in vivo, Wister male rats; conditions: dose 4 mg/kg; HA molecular weight 8 × 10^5
Experimental: as §1, §2, §3, §4
The inhibitory effect on carrageenan-induced edema was investigated with respect to combined agents of sodium hyaluronate (molecular weight: 8 × 10^5) and diclofenac sodium wherein the ratio of diclofenac sodium to sodium hyaluronate varied.
Wister male rats weighing 235 to 260 g (6 weeks old) were preliminarily bred for not less than 1 week. Eight rats were used in one group. […] The volume of the right foot pad was measured before and 4 hours after the administration of carrageenen. Then, the inhibitory effect on edema was evaluated in the same way as in Test Example 1.

[8] = dose 4.0 mg/kg, s.c. foot pad, single agent, 4 h after carrageenan

Compound: O=C(O)Cc1ccccc1Nc1c(Cl)cccc1Cl [Diclofenac sodium]
- Inhibitory rate (edema) ([1]; dose 3.0 mg/kg): 9.7%
- curative effect (in words) [2]: some curative effect
- Inhibitory rate (damage to the movable range of joint) [2]: 17.3%
- Inhibitory rate (edema) [3, 8]: 16.9%

Compound: CC(C)Cc1ccc(C(C)C(=O)O)cc1 (stereo not drawn) [Ibuprofen]
- Inhibitory rate (edema) [3, 8]: 18.2%

Compound: Cc1ccc(C(=O)c2ccc(CC(=O)O)n2C)cc1 [Tolmetin]
- Inhibitory rate (edema) [4]: 25.1%

Compound: CC(C(=O)O)c1ccc2c(c1)Cc1cccnc1O2 (stereo not drawn) [Pranoprofen]
- Inhibitory rate (edema) [4]: 39.0%

Compound: C[C@]12C=CC(=O)C=C1CC[C@@H]1[C@@H]2[C@@H](O)C[C@@]2(C)[C@H]1CC[C@]2(O)C(=O)CO [Prednisolone]
- Inhibitory rate (edema) ([3]; dose 0.5 mg/kg, s.c. foot pad, single agent, 4 h after carrageenan): 21.7%

Compound: C=CCOc1ccc(CC(=O)O)cc1Cl [Alclofenac]
- Inhibitory rate (edema) [4]: 22.9%

Compound: CN1C(C(=O)Nc2ccccn2)=C(O)c2ccccc2S1(=O)=O [Piroxicam]
- Inhibitory rate (edema) [3, 8]: 34.6%

Compound: Sodium hyaluronate [Sodium hyaluronate (HA)]
- Inhibitory rate (edema) ([1]; dose 4.0 mg/kg): 30.0%
- Number of dead mice [5]: 0
- curative effect (in words) [2]: some curative effect
- Inhibitory rate (damage to the movable range of joint) [2]: 24.5%
- Inhibitory rate (edema) [3, 8]: 23.5%
- Inhibitory rate (edema) [4]: 23.9%
- Inhibitory rate (edema) ([6]; molecular weight of HA 28 × 10^4): -36.4%
- Inhibitory rate (edema) ([6]; molecular weight of HA 58 × 10^4): 17.9%
- Inhibitory rate (edema) ([6]; molecular weight of HA 80 × 10^4): 29.9%
- Inhibitory rate (edema) ([6]; molecular weight of HA 210 × 10^4): 43.2%
- Inhibitory rate (edema) [7]: 25.9%

Compound: CCCCC1C(=O)N(c2ccccc2)N(c2ccccc2)C1=O [Phenylbutazon, Phenylbutazone]
- Inhibitory rate (edema) [3, 8]: 46.1%

Compound: CC(=O)Oc1ccccc1C(=O)O [Aspirin]
- Inhibitory rate (edema) [4]: 14.6%

Compound: COc1ccc2c(c1)c(CC(=O)O)c(C)n2C(=O)c1ccc(Cl)cc1 [Indometacin]
- Inhibitory rate (edema) ([1]; dose 3.0 mg/kg): 20%
- Inhibitory rate (edema) ([3]; dose 1.2 mg/kg, s.c. foot pad, single agent, 4 h after carrageenan): 12.9%

Compound: Cc1cccc(Nc2ccccc2C(=O)O)c1C [Mefenamic acid]
- Inhibitory rate (edema) [4]: 34.2%

Compound: O=C([O-])c1ccccc1O.[Na+] [Sodium salicylate]
- Inhibitory rate (edema) ([3]; rat, in vivo, sc, 50 mg/kg): 46.6%
